Assay results as given in PubChem BioAssay (NCI).
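Five compound concentrations were applied to cells in 96-well plates for 48 hours; endpoints were derived by simple linear interpolation of the resulting dose-response curve. GI50 is the concentration that inhibits growth by half. At the TGI there is no net growth.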

Key:
Test in all cases: NCI anticancer screen, dose series, 48 h
[1] = test system: 786-0 renal
[2] = test system: A498 renal
[3] = test system: A549 NSCLC
[4] = test system: ACHN renal
[5] = test system: BT-549 breast
[6] = test system: CAKI-1 renal
[7] = test system: CCRF-CEM leukemia
[8] = test system: COLO 205 colon
[9] = test system: DU-145 prostate
[10] = test system: HCC-2998 colon
[11] = test system: HCT-116 colon
[12] = test system: HCT-15 colon
[13] = test system: HL-60(TB) leukemia
[14] = test system: HOP-62 NSCLC
[15] = test system: HS 578T breast
[16] = test system: HT29 colon
[17] = test system: IGROV1 ovarian
[18] = test system: K-562 leukemia
[19] = test system: KM12 colon
[20] = test system: LOX IMVI melanoma
[21] = test system: M14 melanoma
[22] = test system: MALME-3M melanoma
[23] = test system: MCF7 breast
[24] = test system: MDA-MB-231 breast
[25] = test system: MDA-MB-435
[26] = test system: MOLT-4 leukemia
[27] = test system: NCI-H226 lung
[28] = test system: NCI-H23 lung
[29] = test system: NCI-H460 lung
[30] = test system: NCI-H522 lung
[31] = test system: NCI/ADR-RES ovarian
[32] = test system: OVCAR-3 ovarian
[33] = test system: OVCAR-4 ovarian
[34] = test system: OVCAR-5 ovarian
[35] = test system: OVCAR-8 ovarian
[36] = test system: PC-3 prostate
[37] = test system: RPMI-8226 leukemia
[38] = test system: RXF 393 renal
[39] = test system: SF-268 CNS
[40] = test system: SF-295 CNS
[41] = test system: SF-539 CNS
[42] = test system: SK-MEL-2 melanoma
[43] = test system: SK-MEL-28 melanoma
[44] = test system: SK-MEL-5 melanoma
[45] = test system: SK-OV-3 ovarian
[46] = test system: SN12C renal
[47] = test system: SNB-19 CNS
[48] = test system: SNB-75 CNS
[49] = test system: SR leukemia
[50] = test system: SW-620 colon
[51] = test system: T-47D breast
[52] = test system: TK-10 renal
[53] = test system: U251 CNS
[54] = test system: UACC-257 melanoma
[55] = test system: UACC-62 melanoma
[56] = test system: UO-31 renal

Question: Cn1cc(C2=C(c3cccnc3)C(=O)NC2=O)c2ccccc21 was tested. Which GI50 [1] did it give?
Answer: > 25 µM

Question: And the TGI [1]?
Answer: > 25 µM

Question: And the GI50 [2]?
Answer: 9.03 µM

Question: What about the TGI [2] of the same molecule?
Answer: > 22.9 µM

Question: What about the GI50 [3] of the same molecule?
Answer: > 25 µM

Question: What about the TGI [3] of the same molecule?
Answer: > 25 µM

Question: What about the GI50 [4] of the same molecule?
Answer: 14.1 µM

Question: And the TGI [4]?
Answer: > 25 µM

Question: And the GI50 [5]?
Answer: > 25 µM

Question: And the TGI [5]?
Answer: > 25 µM

Question: And the GI50 [6]?
Answer: > 17.4 µM

Question: And the TGI [6]?
Answer: > 25 µM

Question: And the GI50 [7]?
Answer: 10.5 µM

Question: What about the TGI [7] of the same molecule?
Answer: > 25 µM

Question: What about the GI50 [8] of the same molecule?
Answer: > 18.3 µM

Question: And the TGI [8]?
Answer: > 25 µM

Question: And the GI50 [9]?
Answer: > 25 µM

Question: And the TGI [9]?
Answer: > 25 µM

Question: And the GI50 [10]?
Answer: > 25 µM

Question: What about the TGI [10] of the same molecule?
Answer: > 25 µM

Question: And the GI50 [11]?
Answer: 15 µM

Question: What about the TGI [11] of the same molecule?
Answer: > 25 µM

Question: And the GI50 [12]?
Answer: > 25 µM

Question: And the TGI [12]?
Answer: > 25 µM

Question: And the GI50 [13]?
Answer: > 25 µM

Question: And the TGI [13]?
Answer: > 25 µM

Question: And the GI50 [14]?
Answer: > 21.9 µM

Question: What about the TGI [14] of the same molecule?
Answer: > 25 µM

Question: And the GI50 [15]?
Answer: 8.14 µM

Question: And the TGI [15]?
Answer: > 25 µM

Question: What about the GI50 [16] of the same molecule?
Answer: > 25 µM

Question: And the TGI [16]?
Answer: > 25 µM

Question: And the GI50 [17]?
Answer: 24.3 µM

Question: And the TGI [17]?
Answer: > 25 µM

Question: And the GI50 [18]?
Answer: > 25 µM

Question: And the TGI [18]?
Answer: > 25 µM

Question: What about the GI50 [19] of the same molecule?
Answer: > 20.6 µM

Question: What about the TGI [19] of the same molecule?
Answer: > 25 µM

Question: And the GI50 [20]?
Answer: > 20.9 µM

Question: What about the TGI [20] of the same molecule?
Answer: > 25 µM

Question: What about the GI50 [21] of the same molecule?
Answer: > 25 µM

Question: What about the TGI [21] of the same molecule?
Answer: > 25 µM

Question: And the GI50 [22]?
Answer: > 25 µM

Question: What about the TGI [22] of the same molecule?
Answer: > 25 µM

Question: What about the GI50 [23] of the same molecule?
Answer: 8.45 µM

Question: What about the TGI [23] of the same molecule?
Answer: > 25 µM

Question: What about the GI50 [24] of the same molecule?
Answer: > 23.8 µM

Question: What about the TGI [24] of the same molecule?
Answer: > 25 µM

Question: And the GI50 [25]?
Answer: > 25 µM

Question: What about the TGI [25] of the same molecule?
Answer: > 25 µM

Question: And the GI50 [26]?
Answer: > 21.6 µM

Question: And the TGI [26]?
Answer: > 25 µM

Question: What about the GI50 [27] of the same molecule?
Answer: 8.15 µM

Question: What about the TGI [27] of the same molecule?
Answer: > 19.2 µM

Question: And the GI50 [28]?
Answer: > 25 µM

Question: And the TGI [28]?
Answer: > 25 µM

Question: What about the GI50 [29] of the same molecule?
Answer: > 23.1 µM

Question: What about the TGI [29] of the same molecule?
Answer: > 25 µM

Question: What about the GI50 [30] of the same molecule?
Answer: > 25 µM

Question: And the TGI [30]?
Answer: > 25 µM

Question: And the GI50 [31]?
Answer: > 25 µM

Question: And the TGI [31]?
Answer: > 25 µM

Question: And the GI50 [32]?
Answer: 15 µM

Question: And the TGI [32]?
Answer: > 25 µM

Question: What about the GI50 [33] of the same molecule?
Answer: > 22.2 µM

Question: What about the TGI [33] of the same molecule?
Answer: > 25 µM

Question: What about the GI50 [34] of the same molecule?
Answer: > 25 µM

Question: What about the TGI [34] of the same molecule?
Answer: > 25 µM

Question: What about the GI50 [35] of the same molecule?
Answer: > 25 µM

Question: And the TGI [35]?
Answer: > 25 µM

Question: What about the GI50 [36] of the same molecule?
Answer: 17.1 µM

Question: What about the TGI [36] of the same molecule?
Answer: > 25 µM

Question: And the GI50 [37]?
Answer: > 25 µM

Question: What about the TGI [37] of the same molecule?
Answer: > 25 µM

Question: And the GI50 [38]?
Answer: 5.63 µM

Question: And the TGI [38]?
Answer: > 17.9 µM

Question: What about the GI50 [39] of the same molecule?
Answer: > 25 µM

Question: And the TGI [39]?
Answer: > 25 µM

Question: And the GI50 [40]?
Answer: 8.13 µM

Question: What about the TGI [40] of the same molecule?
Answer: > 25 µM

Question: What about the GI50 [41] of the same molecule?
Answer: 11.4 µM

Question: What about the TGI [41] of the same molecule?
Answer: > 25 µM

Question: What about the GI50 [42] of the same molecule?
Answer: > 13 µM

Question: What about the TGI [42] of the same molecule?
Answer: 25 µM

Question: And the GI50 [43]?
Answer: > 25 µM

Question: And the TGI [43]?
Answer: > 25 µM

Question: What about the GI50 [44] of the same molecule?
Answer: > 12 µM

Question: And the TGI [44]?
Answer: > 22.5 µM

Question: And the GI50 [45]?
Answer: > 22.9 µM

Question: And the TGI [45]?
Answer: > 25 µM

Question: What about the GI50 [46] of the same molecule?
Answer: > 25 µM

Question: And the TGI [46]?
Answer: > 25 µM

Question: What about the GI50 [47] of the same molecule?
Answer: > 25 µM

Question: What about the TGI [47] of the same molecule?
Answer: > 25 µM

Question: What about the GI50 [48] of the same molecule?
Answer: 882 nM

Question: What about the TGI [48] of the same molecule?
Answer: > 25 µM

Question: And the GI50 [49]?
Answer: 15.5 µM

Question: What about the TGI [49] of the same molecule?
Answer: > 25 µM

Question: What about the GI50 [50] of the same molecule?
Answer: > 25 µM

Question: And the TGI [50]?
Answer: > 25 µM

Question: What about the GI50 [51] of the same molecule?
Answer: 14.6 µM

Question: And the TGI [51]?
Answer: > 25 µM

Question: What about the GI50 [52] of the same molecule?
Answer: > 25 µM

Question: And the TGI [52]?
Answer: > 25 µM

Question: And the GI50 [53]?
Answer: 18.8 µM

Question: What about the TGI [53] of the same molecule?
Answer: > 25 µM

Question: And the GI50 [54]?
Answer: > 25 µM

Question: And the TGI [54]?
Answer: > 25 µM

Question: What about the GI50 [55] of the same molecule?
Answer: > 25 µM

Question: And the TGI [55]?
Answer: > 25 µM

Question: What about the GI50 [56] of the same molecule?
Answer: > 25 µM

Question: And the TGI [56]?
Answer: > 25 µM
